Consider 52 molecules from patent publication US20240316047A1, “INHIBITORS OF RNA HELICASE DHX9 AND USES THEREOF” (ACCENT THERAPEUTICS, INC., priority 2022, published 2024).

In this assay the target is Human recombinant DHX9 protein (Homo sapiens (Human), UniProt Q08211). Put plainly: DHX9 ATPase assay (ADP-Glo). Type of assay: biochemical. To be noted: for IC50: read-out: DHX9 Biochemical Inflection Point.
Chain of Human recombinant DHX9 protein (Q08211 whole entry): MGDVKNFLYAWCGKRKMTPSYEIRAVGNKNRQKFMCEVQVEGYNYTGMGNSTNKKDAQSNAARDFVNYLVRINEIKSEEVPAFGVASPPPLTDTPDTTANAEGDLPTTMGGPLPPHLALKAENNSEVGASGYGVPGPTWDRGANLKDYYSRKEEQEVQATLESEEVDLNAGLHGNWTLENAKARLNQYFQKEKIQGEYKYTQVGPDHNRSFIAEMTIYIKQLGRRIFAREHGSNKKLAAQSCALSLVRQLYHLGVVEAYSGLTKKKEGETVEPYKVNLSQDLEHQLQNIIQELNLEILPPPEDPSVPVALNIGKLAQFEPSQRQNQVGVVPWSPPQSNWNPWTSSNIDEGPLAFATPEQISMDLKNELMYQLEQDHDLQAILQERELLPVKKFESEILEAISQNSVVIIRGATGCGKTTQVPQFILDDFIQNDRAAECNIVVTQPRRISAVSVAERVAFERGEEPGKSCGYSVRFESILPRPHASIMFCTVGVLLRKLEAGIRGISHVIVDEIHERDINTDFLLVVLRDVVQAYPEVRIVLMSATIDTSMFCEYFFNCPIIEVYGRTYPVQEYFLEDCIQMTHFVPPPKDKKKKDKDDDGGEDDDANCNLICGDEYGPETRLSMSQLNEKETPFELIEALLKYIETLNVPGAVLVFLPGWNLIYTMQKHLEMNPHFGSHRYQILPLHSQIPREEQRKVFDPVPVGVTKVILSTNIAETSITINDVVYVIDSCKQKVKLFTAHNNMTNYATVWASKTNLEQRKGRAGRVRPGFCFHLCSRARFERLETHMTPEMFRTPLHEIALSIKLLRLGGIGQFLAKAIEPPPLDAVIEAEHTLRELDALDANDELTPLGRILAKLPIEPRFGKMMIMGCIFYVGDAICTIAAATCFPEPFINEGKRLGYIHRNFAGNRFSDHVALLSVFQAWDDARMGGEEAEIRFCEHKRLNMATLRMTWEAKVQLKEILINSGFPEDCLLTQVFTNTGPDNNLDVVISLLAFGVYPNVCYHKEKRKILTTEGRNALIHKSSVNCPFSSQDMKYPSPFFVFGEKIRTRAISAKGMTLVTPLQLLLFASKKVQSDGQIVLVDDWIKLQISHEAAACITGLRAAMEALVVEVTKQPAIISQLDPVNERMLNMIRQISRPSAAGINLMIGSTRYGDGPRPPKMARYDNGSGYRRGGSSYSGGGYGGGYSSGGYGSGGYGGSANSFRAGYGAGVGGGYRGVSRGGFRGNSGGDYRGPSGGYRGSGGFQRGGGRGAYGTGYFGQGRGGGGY

On to `Cc1ccc(C(=O)Nc2cc(Br)cc(NS(C)(=O)=O)c2)cc1-n1cccn1` [Example 10], for which the “DHX9 Biochemical Max Inhibition” value amounted to 61% and the IC50 came out at 133 nM.

Turning to `Cc1sc(C(=O)Nc2cc(Cl)cc(NS(C)(=O)=O)c2)cc1-c1ccccc1` [Example 11], the “DHX9 Biochemical Max Inhibition” value is 62.7% and the IC50 was found to be 123 nM.

In the case of `CS(=O)(=O)Nc1cc(Br)cc(NC(=O)C2CCC2c2ccccc2)c1` (centres unmarked) [Example 12], the “DHX9 Biochemical Max Inhibition” value is listed as 58.6% and the IC50 is 84700 nM.

`CS(=O)(=O)Nc1cc(Cl)cc(NC(=O)c2cccc(-c3cccc(C#N)c3)c2)c1` [Example 13]: the “DHX9 Biochemical Max Inhibition” value was found to be 41.7% and the IC50 came to 1150 nM.

For the molecule `CS(=O)(=O)Nc1cc(Cl)cc(NC(=O)c2cccc(-c3ccncc3)c2)c1` [Example 14], the “DHX9 Biochemical Max Inhibition” value is given as 59.6% and the IC50 came to 353 nM.

As for `CS(=O)(=O)Nc1cc(I)cc(NC(=O)c2cc(-c3ccccc3)cs2)c1` [Example 16], the “DHX9 Biochemical Max Inhibition” value was 46.3% and the IC50 is 251 nM.

With `CS(=O)(=O)Nc1cc(Br)cc(NC(=O)c2cc(-c3cnccn3)cs2)c1` [Example 18], the “DHX9 Biochemical Max Inhibition” value is given as 61% and the IC50 amounted to 8.6 nM.

As for `Cc1cccc(O)c1-c1csc(C(=O)Nc2cc(Br)cc(NS(C)(=O)=O)c2)c1` [Example 19], the “DHX9 Biochemical Max Inhibition” value is recorded as 53.5% and the IC50 stood at 115 nM.

Consider `Cc1sc(C(=O)Nc2cc(Br)cc(NS(C)(=O)=O)c2)cc1-c1ccccc1O` [Example 20], for which the “DHX9 Biochemical Max Inhibition” value came out at 62.5% and the IC50 came to 57.2 nM.

Turning to `CS(=O)(=O)Nc1cc(Br)cc(NC(=O)c2cc(-c3ccccc3O)cs2)c1` [Example 21], the “DHX9 Biochemical Max Inhibition” value turned out to be 61.7% and the IC50 came to 33.2 nM.

For the molecule `Cc1sc(C(=O)Nc2cc(Cl)cc(NS(C)(=O)=O)c2)cc1-c1ncccn1` [Example 22], the “DHX9 Biochemical Max Inhibition” value was 71% and the IC50 worked out at 2.5 nM.

On to `Cc1sc(C(=O)Nc2cc(Br)cc(NS(C)(=O)=O)c2)cc1-c1ccccn1` [Example 23], for which the “DHX9 Biochemical Max Inhibition” value stood at 69% and the IC50 is 3.2 nM.

`CS(=O)(=O)Nc1cc(Br)cc(NC(=O)c2cc(-c3ncccn3)cs2)c1` [Example 25]: the “DHX9 Biochemical Max Inhibition” value is recorded as 61.3% and the IC50 is 5.6 nM.

Take `CS(=O)(=O)Nc1cc(Cl)cc(NC(=O)c2cc(-c3ncccn3)cs2)c1` [Example 26]: the “DHX9 Biochemical Max Inhibition” value was 65.6% and the IC50 was 1.8 nM.

`CCS(=O)(=O)Nc1cc(Cl)cc(NC(=O)c2cc(-c3ncccn3)c(C)s2)c1` [Example 27]: the “DHX9 Biochemical Max Inhibition” value was found to be 68% and the IC50 worked out at 6.4 nM.

Take `CCS(=O)(=O)Nc1cc(Cl)cc(NC(=O)c2cc(-c3ccccn3)c(C)s2)c1` [Example 28]: the “DHX9 Biochemical Max Inhibition” value turned out to be 68.3% and the IC50 amounted to 4.2 nM.

With `CS(=O)(=O)Nc1cc(Cl)cc(NC(=O)c2cc(-c3ncccc3OCc3ccccc3)cs2)c1` [Example 29], the “DHX9 Biochemical Max Inhibition” value is 65.2% and the IC50 is 48.2 nM.

Take `CS(=O)(=O)Nc1cc(Br)cc(NC(=O)c2cc(-c3ccccc3OCc3ccccc3)cs2)c1` [Example 30]: the “DHX9 Biochemical Max Inhibition” value stood at 40.5% and the IC50 is 787 nM.

Regarding `CS(=O)(=O)Nc1cc(Br)cc(NC(=O)c2cc(-c3ncccc3OCc3ccccc3)cs2)c1` [Example 32], the “DHX9 Biochemical Max Inhibition” value was 56.3% and the IC50 turned out to be 38.3 nM.

With `Cc1cccnc1-c1csc(C(=O)Nc2cc(Br)cc(NS(C)(=O)=O)c2)c1` [Example 33], the “DHX9 Biochemical Max Inhibition” value turned out to be 61.7% and the IC50 is 4.8 nM.

Turning to `Cc1sc(C(=O)Nc2cc(Cl)cc(NS(C)(=O)=O)c2)cc1-c1ncccc1OCc1ccccc1` [Example 34], the “DHX9 Biochemical Max Inhibition” value is 75.2% and the IC50 was 6.3 nM.

For the molecule `Cc1sc(C(=O)Nc2cc(Cl)cc(NS(C)(=O)=O)c2)cc1-c1ccc(F)cn1` [Example 35], the “DHX9 Biochemical Max Inhibition” value was 75.7% and the IC50 worked out at 3.9 nM.

Regarding `CS(=O)(=O)Nc1cc(Br)cc(NC(=O)c2cnn(-c3ccccn3)c2)c1` [Example 36, N-(3-bromo-5-(methylsulfonamido)phenyl)-1-(pyridin-2-yl)-1H-pyrazole-4-carboxamide], the “DHX9 Biochemical Max Inhibition” value worked out at 56.86% and the IC50 was determined as 28 nM.

Regarding `CS(=O)(=O)Nc1cc(Cl)cc(NC(=O)c2cnn(-c3ccccn3)c2)c1` [Example 37], the “DHX9 Biochemical Max Inhibition” value stood at 62.6% and the IC50 turned out to be 47.9 nM.

As for `CS(=O)(=O)Nc1cc(Br)cc(NC(=O)c2cnn(-c3cc(C#N)ccn3)c2)c1` [Example 38], the “DHX9 Biochemical Max Inhibition” value is reported as 44.7% and the IC50 came out at 65.5 nM.

With `CS(=O)(=O)Nc1cc(Br)cc(NC(=O)c2cnn(-c3ccc(F)cn3)c2)c1` [Example 39], the “DHX9 Biochemical Max Inhibition” value is given as 52.3% and the IC50 is 70.1 nM.

Regarding `CS(=O)(=O)Nc1cc(Br)cc(NC(=O)c2cnn(-c3cnccn3)c2)c1` [Example 40], the “DHX9 Biochemical Max Inhibition” value is on record as 60% and the IC50 came out at 15.7 nM.

As for `CS(=O)(=O)Nc1cc(Br)cc(NC(=O)c2cnn(-c3ccc(C#N)cn3)c2)c1` [Example 41], the “DHX9 Biochemical Max Inhibition” value is 40.3% and the IC50 stood at 47.4 nM.

Turning to `Cc1ccc(-n2cc(C(=O)Nc3cc(Br)cc(NS(C)(=O)=O)c3)cn2)nc1` [Example 42], the “DHX9 Biochemical Max Inhibition” value worked out at 48.7% and the IC50 worked out at 18.7 nM.

Regarding `CS(=O)(=O)Nc1cc(Br)cc(NC(=O)c2cnn(-c3ccc(C(F)(F)F)cn3)c2)c1` [Example 43], the “DHX9 Biochemical Max Inhibition” value is 49.8% and the IC50 was 258 nM.

In the case of `Cc1cccc(C#N)c1-n1cc(C(=O)Nc2cc(Br)cc(NS(C)(=O)=O)c2)cn1` [Example 44], the “DHX9 Biochemical Max Inhibition” value is reported as 60.3% and the IC50 was 137 nM.

Consider `Cc1cccnc1-n1cc(C(=O)Nc2cc(Br)cc(NS(C)(=O)=O)c2)cc1C` [Example 45], for which the “DHX9 Biochemical Max Inhibition” value was 67.4% and the IC50 is 16.4 nM.

Turning to `CS(=O)(=O)Nc1cc(Cl)cc(NC(=O)c2cnn(-c3ncccc3C#N)c2)c1` [Example 46], the “DHX9 Biochemical Max Inhibition” value is 57.2% and the IC50 turned out to be 47.3 nM.

For the molecule `CS(=O)(=O)Nc1cc(Cl)cc(NC(=O)c2cnn(-c3ncccc3C(F)(F)F)c2)c1` [Example 47], the “DHX9 Biochemical Max Inhibition” value amounted to 64.7% and the IC50 amounted to 269 nM.

For the molecule `CS(=O)(=O)Nc1cc(Br)cc(NC(=O)c2cnn(C3CCCCC3)c2)c1` [Example 48], the “DHX9 Biochemical Max Inhibition” value came out at 54.1% and the IC50 was determined as 93.1 nM.

On to `Cc1cccnc1-n1cc(C(=O)Nc2cc(Br)cc(NS(C)(=O)=O)c2)cn1` [Example 49], for which the “DHX9 Biochemical Max Inhibition” value came out at 58.6% and the IC50 was 49.7 nM.

Turning to `CS(=O)(=O)Nc1cc(Br)cc(NC(=O)c2cnn(-c3ncccn3)c2)c1` [Example 50, N-(3-bromo-5-(methylsulfonamido)phenyl)-1-(pyrimidin-2-yl)-1H-pyrazole-4-carboxamide], the “DHX9 Biochemical Max Inhibition” value was determined as 55.5% and the IC50 amounted to 45 nM.

For the molecule `CS(=O)(=O)Nc1cc(Br)cc(NC(=O)c2cnn(-c3ccccc3OCc3ccccc3)c2)c1` [Example 51], the “DHX9 Biochemical Max Inhibition” value came out at 61.1% and the IC50 came out at 145 nM.

Consider `CS(=O)(=O)Nc1cc(Br)cc(NC(=O)c2cnn(-c3cccc(C#N)c3)c2)c1` [Example 52], for which the “DHX9 Biochemical Max Inhibition” value came out at 37.9% and the IC50 came out at 198 nM.

As for `Cc1ccc(C#N)cc1-n1cc(C(=O)Nc2cc(Br)cc(NS(C)(=O)=O)c2)cn1` [Example 53], the “DHX9 Biochemical Max Inhibition” value came out at 52.2% and the IC50 came to 1910 nM.

For the molecule `Cc1cccnc1-n1cc(C(=O)Nc2cc(Cl)cc(NS(C)(=O)=O)c2)cn1` [Example 54], the “DHX9 Biochemical Max Inhibition” value is 66.6% and the IC50 turned out to be 65.6 nM.

For the molecule `CS(=O)(=O)Nc1cc(Br)cc(NC(=O)c2cnn(-c3ccc(N4CCOCC4)cn3)c2)c1` [Example 55], the “DHX9 Biochemical Max Inhibition” value amounted to 48.6% and the IC50 amounted to 9.9 nM.

For the molecule `CS(=O)(=O)Nc1cc(Br)cc(NC(=O)c2cnn(-c3cccc(C(F)F)n3)c2)c1` [Example 56], the “DHX9 Biochemical Max Inhibition” value came out at 48.8% and the IC50 was determined as 197 nM.

With `CS(=O)(=O)Nc1cc(Br)cc(NC(=O)c2cnn(-c3cccc(OC(F)F)n3)c2)c1` [Example 57], the “DHX9 Biochemical Max Inhibition” value is listed as 45.8% and the IC50 turned out to be 14600 nM.

As for `CS(=O)(=O)Nc1cc(Br)cc(NC(=O)c2cnn(-c3ccccc3C=O)c2)c1` [Example 58], the “DHX9 Biochemical Max Inhibition” value turned out to be 44.4% and the IC50 is 84.9 nM.

With `Cc1cc(C(=O)Nc2cc(Cl)cc(NS(C)(=O)=O)c2)cn1-c1ncccn1` [Example 59], the “DHX9 Biochemical Max Inhibition” value is given as 77.5% and the IC50 turned out to be 12.7 nM.

Regarding `CS(=O)(=O)Nc1cc(Br)cc(NC(=O)c2cc(-n3cccn3)cs2)c1` [Example 60], the “DHX9 Biochemical Max Inhibition” value is 63% and the IC50 is 7.8 nM.

Turning to `CC(Oc1cccnc1-n1cc(C(=O)Nc2cc(Cl)cc(NS(C)(=O)=O)c2)cn1)c1ccccc1` (centres unmarked) [Example 62], the “DHX9 Biochemical Max Inhibition” value worked out at 58.4% and the IC50 is 211 nM.

For `CS(=O)(=O)Nc1cc(Cl)cc(NC(=O)c2cnn(-c3ncccc3OCc3ccccn3)c2)c1` [Example 63], the “DHX9 Biochemical Max Inhibition” value came to 66.2% and the IC50 was 83.9 nM.

Turning to `CS(=O)(=O)Nc1cc(Cl)cc(NC(=O)c2cnn(-c3ncccc3OCc3ccncc3)c2)c1` [Example 64], the “DHX9 Biochemical Max Inhibition” value worked out at 61.8% and the IC50 stood at 59.9 nM.

As for `CS(=O)(=O)Nc1cc(Cl)cc(NC(=O)c2cnn(-c3ncccc3OCc3cccc(F)c3)c2)c1` [Example 65], the “DHX9 Biochemical Max Inhibition” value is listed as 72.6% and the IC50 is 5.5 nM.

For `CS(=O)(=O)Nc1cc(Cl)cc(NC(=O)c2cnn(-c3ncccc3OCc3cnco3)c2)c1` [Example 66], the “DHX9 Biochemical Max Inhibition” value is reported as 62.9% and the IC50 worked out at 56.6 nM.
